Test results from article PMC5371653, “Pharmacological and Biochemical Characterization of TLQP-21 Activation of a Binding Site on CHO Cells” (Frontiers in Pharmacology, 2017).
Where two headings read alike, the source gives them in different places.

Tests used:
[1] = tested on: CHO cells; type: cell-based; conditions: for intracellular Ca2+ levels, maximal response (ΔF/F): peptide 1 μM, vs. HBSS, at least five wells
Description: CHO cells were plated at 20.000 cells/well into black walled, clear bottom 96-well plate (Corning, Germany) and cultured one day up to 80–90% of confluence. […] TLQP-21, TLQP-62, TLQP-8, HHPD-41, HFHH-10, and LRPS-21 were diluted in HBSS solution and injected into the wells by an automated injector system. […] Depletion of Ca^2+ from the ER leads to Ca^2+ entry from outside the cell by activation of Store-Operated Channels (SOCs).

[2] = tested on: TLQP-21 binding sites on CHO cell membranes; assay: TLQP-21 binding assay with [125I]-YATL-23 on crude CHO cell membranes; conditions: competition with 1 nM [125I]-YATL-23, competitor 10 pM to 0.1 μM
Description: Binding of TLQP-21 to crude membranes (30,000 × g pellet) obtained from CHO cells was carried out using [^125I]-YATL-23 as ligand. YATL-23 was radioiodinated (specific activity, 2000 Ci/mmol) using the lactoperoxidase method ([Muccioli et al., 1998]; [Muccioli et al., 2001]) by Perkin Elmer (Milan, Italy) and purified by reverse phase high-performance liquid chromatography. For the single point binding assay, cell membranes (corresponding to 100 μg membrane protein) were incubated in triplicate at 23°C, unless otherwise noted, for 4 h under constant shaking with 0.5 nM [^125I]-YATL-23 in a final volume of 0.5 ml assay buffer (50 mM Tris, 2.5 mM EGTA, 0.002% bacitracin, 0.1% bovine serum albumin, titrated to a final pH of 7.4 with HCl). Non-specific binding was measured in parallel incubations with 1 μM unlabelled YATL-23 to displace the radioligand. Similar results were obtained using TLQP-21 to displace the radioligand. The binding reaction was terminated by the addition of ice-cold assay buffer, followed by rapid filtration through Whatman GF/B filters as previously reported ([Muccioli et al., 1998]) and the radioactivity bound to membranes was measured by a Packard auto-γ-counter. Specific binding-values were calculated as the difference obtained subtracting non-specific from total binding. Specific binding was expressed as a percentage of the total radioactivity added. […]

[3] = tested on: CHO cells; conditions: ref Cassina et al., 2013; cited from earlier work
From the text: Among several bioactive peptides derived from VGF, TLQP-21 (VGF^556-576) is a 21 amino acid peptide which has been immunopurified from brain tissues ([Bartolomucci et al., 2006]). Despite many efforts to characterize the physiological effects of TLQP-21, little is known about its molecular targets. Nonetheless, adipocytes express a high affinity binding site for TLQP-21 and in these cells TLQP-21 stimulates a pro-lipolytic effect ([Possenti et al., 2012]).

[4] = inhibitor 10 μM, 20 min pretreatment, then 1 μM TLQP-21

Molecule: NCCOB(c1ccccc1)c1ccccc1 [2-APB, 2-Aminoethyl diphenylborinate]
- decrement of TLQP-21 intracellular Ca2+ mobilization ([1]; inhibitor 75 μM, 15 min preincubation, then 1 μM TLQP-21): about 79%

Molecule: O=C(O)CN(CCOCCOCCN(CC(=O)O)CC(=O)O)CC(=O)O [EGTA]
- decrement in TLQP-21-mediated intracellular Ca2+ mobilization ([1]; chelator 1 mM, 30 min pretreatment, then 1 μM TLQP-21): ~45%

Molecule: COc1ccc(CCCOC(Cn2ccnc2)c2ccc(OC)cc2)cc1 (stereo not shown) [SKF-96365]
- decrement in TLQP-21-mediated intracellular Ca2+ mobilization [1, 4]: about 36%

Molecule: C/C=C(/C)C(=O)O[C@H]1C(C)=C2[C@H]([C@@H]1OC(=O)CCCCCCC)[C@@](C)(OC(C)=O)C[C@H](OC(=O)CCC)[C@@]1(O)[C@H]2OC(=O)[C@@]1(C)O [TG, thapsigargin]
- reduction of TLQP-21-mediated increase of intracellular Ca2+ ([1]; inhibitor 2 μM, 20 min preincubation, then 1 μM TLQP-21): 56%

Molecule: CC(C)C[C@H](NC(=O)[C@@H](N)[C@@H](C)O)C(=O)N[C@@H](CCC(N)=O)C(=O)N1CCC[C@H]1C(=O)N1CCC[C@H]1C(=O)N[C@@H](C)C(=O)N[C@@H](CO)C(=O)N[C@@H](CO)C(=O)N[C@@H](CCCNC(=N)N)C(=O)N[C@@H](CCCNC(=N)N)C(=O)N[C@@H](CCCNC(=N)N)C(=O)N[C@@H](Cc1c[nH]cn1)C(=O)N[C@@H](Cc1ccccc1)C(=O)N[C@@H](Cc1c[nH]cn1)C(=O)N[C@@H](Cc1c[nH]cn1)C(=O)N[C@@H](C)C(=O)N[C@@H](CC(C)C)C(=O)N1CCC[C@H]1C(=O)N1CCC[C@H]1C(=O)N[C@@H](C)C(=O)N[C@@H](CCCNC(=N)N)C(=O)O [TLQP-21]
- EC50 ([1]; CHO cells, stated as 1 μM being close to the EC50, read-out: EC50 of intracellular Ca2+ mobilization): ~1 µM

Molecule: COc1ccc2c(c1)CC[C@@H]1[C@@H]2CC[C@]2(C)[C@@H](NCCCCCCN3C(=O)C=CC3=O)CC[C@@H]12 [U73122]
- reduction of TLQP-21 stimulation of intracellular Ca2+ mobilization ([1]; inhibitor 10 μM, 10 min preincubation, then 1 μM TLQP-21): about 82%

Molecule: Cc1nnsc1C(=O)Nc1ccc(-n2nc(C(F)(F)F)cc2C(F)(F)F)cc1 [YM-58483]
- decrement in TLQP-21-mediated intracellular Ca2+ mobilization [1, 4]: ~27%

Molecule: Cyclosporine A [CsA]
- basal levels of intracellular Ca2+ ([1]; 2 μM, before TLQP-21): did not modify
- effect on TLQP-21 Ca2+ stimulation ([1]; inhibitor 2 μM, 15 min preincubation, then 1 μM TLQP-21): did not affect

Molecule: HFHHALPPAR [HFHH-10, 10 amino acids at the C-terminal of TLQP-21]
- intracellular Ca2+ levels, maximal response (ΔF/F) ([1]; repeated at least three times): effectively stimulated

Molecule: HHPDLEAQARRAQEEADAEERRLQEQEELENYIEHVLLHRP [HHPD-41, VGF-derived peptide from processing of TLQP-62]
- intracellular Ca2+ levels, maximal response (ΔF/F) ([1]; repeated at least three times): ineffective

Molecule: LRPSHTRPAHQSFARP LHRPA [LRPS-21, scrambled control peptide with the same amino acid residues as TLQP-21]
- intracellular Ca2+ levels, maximal response ([1]; peptide 1 nM–10 μM, TLQP-21 significant (P < 0.05) at 0.1 μM–10 μM, at least six wells, repeated at least three times): did not stimulate
- inhibition of [125I]-YATL-23 binding to CHO membranes [2]: not inhibited
- stimulation of intracellular Ca2+ in CHO cells [3]: did not stimulate

Molecule: TLQPPASS [TLQP-8, 8 amino acids at the N-terminal of TLQP-21]
- intracellular Ca2+ levels, maximal response (ΔF/F) ([1]; repeated at least three times): slight and non-significant increase

Molecule: TLQPPASSRRRHFHHALPPARHHPDLEAQARRAQEEADAEERRLQEQEELENYIEHVLLHRP [TLQP-62]
- intracellular Ca2+ levels, maximal response (ΔF/F) ([1]; repeated at least three times): failed to stimulate any significant increase
